Measured values reported in US9469650B2, “Melampomagnolide B derivatives” (BOARD OF TRUSTEES OF THE UNIVERSITY OF ARKANSAS, priority 2013, dated 2016).

Columns and labels:
ACHN = assay: panel of 60 human tumor cell lines, growth inhibition (Renal Cancer)
SN12C = assay: as above
UO-31 = assay: as above
MCF7 = assay: panel of 60 human tumor cell lines, growth inhibition (Breast Cancer); conditions: for GI50: MCF7, MCF7; for Percent Growth: MCF7
MDA-MB-231/ATCC = assay: as above; conditions: for Percent Growth: MDA-MB-231/ATCC
OVCAR-8 = assay: panel of 60 human tumor cell lines, growth inhibition (Ovarian Cancer)
SK-OV-3 = assay: as above
HOP-62 = assay: panel of 60 human tumor cell lines, growth inhibition (Non-Small Cell Lung Cancer)
NCI-H226 = assay: as above
NCI-H460 = assay: as above

C=C1C(=O)O[C@H]2[C@H]1CC/C(COC(=O)NCCc1ccccn1)=C\CC[C@@]1(C)O[C@@H]21 [JVM 61, ((1aR,7aS,10aS,10bS,E)-1a-methyl-8-methylene-9-oxo-1a,2,3,6,7,7a,8,9,10a,10b-decahydrooxireno[2′,3′:9,10]cyclodeca[1,2-b]furan-5-yl)methyl-(2-(pyridin-2-yl)ethyl)carbamate]
Percent Growth (ACHN; Log10 Concentration −4.0): −98%
Percent Growth (ACHN; Log10 Concentration −5.0): 5%
Percent Growth (ACHN; Log10 Concentration −6.0): 85%
Percent Growth (ACHN; Log10 Concentration −7.0): 97%
Percent Growth (ACHN; Log10 Concentration −8.0): 102%
GI50 (SN12C; Homo sapiens): 6.61 µM
CC50 (SN12C; Homo sapiens, read-out: LC50): 66.3 µM
IC (TGI) (SN12C; Homo sapiens, read-out: TGI): 25.4 µM
Percent Growth (SN12C; Log10 Concentration −4.0): −70%
Percent Growth (SN12C; Log10 Concentration −5.0): 41%
Percent Growth (SN12C; Log10 Concentration −6.0): 91%
Percent Growth (SN12C; Log10 Concentration −7.0): 92%
Percent Growth (SN12C; Log10 Concentration −8.0): 95%
GI50 (UO-31; Homo sapiens, UO-31): 6.38 µM
CC50 (UO-31; Homo sapiens, UO-31, read-out: LC50): 51.3 µM
IC (TGI) (UO-31; Homo sapiens, UO-31, read-out: TGI): 20.8 µM
Percent Growth (UO-31; UO-31, Log10 Concentration −4.0): −87%
Percent Growth (UO-31; UO-31, Log10 Concentration −5.0): 40%
Percent Growth (UO-31; UO-31, Log10 Concentration −6.0): 89%
Percent Growth (UO-31; UO-31, Log10 Concentration −7.0): 93%
Percent Growth (UO-31; UO-31, Log10 Concentration −8.0): 93%
GI50 (MCF7; Homo sapiens): 2.65 µM
GI50 (MCF7; Homo sapiens, 5-dose assay): 2.85 µM
CC50 (MCF7; Homo sapiens, MCF7, read-out: LC50): 61.4 µM
IC (TGI) (MCF7; Homo sapiens, MCF7, read-out: TGI): 13 µM
Percent Growth (MCF7; Log10 Concentration −4.0): −66%
Percent Growth (MCF7; Log10 Concentration −5.0): 8%
Percent Growth (MCF7; Log10 Concentration −6.0): 85%
Percent Growth (MCF7; Log10 Concentration −8.0): 91%
GI50 (MDA-MB-231/ATCC; Homo sapiens, MDA-MB-231): 11.4 µM
CC50 (MDA-MB-231/ATCC; Homo sapiens, MDA-MB-231, read-out: LC50): 56.4 µM
IC (TGI) (MDA-MB-231/ATCC; Homo sapiens, MDA-MB-231, read-out: TGI): 25.4 µM
Percent Growth (MDA-MB-231/ATCC; Log10 Concentration −4.0): −86%
Percent Growth (MDA-MB-231/ATCC; Log10 Concentration −5.0): 58%
Percent Growth (MDA-MB-231/ATCC; Log10 Concentration −6.0): 96%
Percent Growth (MDA-MB-231/ATCC; Log10 Concentration −7.0): 100%
Percent Growth (MDA-MB-231/ATCC; Log10 Concentration −8.0): 103%
GI50 (OVCAR-8; Homo sapiens, OVCAR-8): 4.39 µM
CC50 (OVCAR-8; Homo sapiens, OVCAR-8, read-out: LC50): 65.1 µM
IC (TGI) (OVCAR-8; Homo sapiens, OVCAR-8, read-out: TGI): 18.5 µM
Percent Growth (OVCAR-8; OVCAR-8, Log10 Concentration −4.0): −67%
Percent Growth (OVCAR-8; OVCAR-8, Log10 Concentration −5.0): 25%
Percent Growth (OVCAR-8; OVCAR-8, Log10 Concentration −6.0): 96%
Percent Growth (OVCAR-8; OVCAR-8, Log10 Concentration −7.0): 100%
Percent Growth (OVCAR-8; OVCAR-8, Log10 Concentration −8.0): 108%
GI50 (SK-OV-3; Homo sapiens, SK-OV-3): 26.2 µM
CC50 (SK-OV-3; Homo sapiens, SK-OV-3, read-out: LC50): > 100 µM
IC (TGI) (SK-OV-3; Homo sapiens, SK-OV-3, read-out: TGI): 97.4 µM
Percent Growth (SK-OV-3; SK-OV-3, Log10 Concentration −4.0): −1%
Percent Growth (SK-OV-3; SK-OV-3, Log10 Concentration −5.0): 87%
Percent Growth (SK-OV-3; SK-OV-3, Log10 Concentration −6.0): 103%
Percent Growth (SK-OV-3; SK-OV-3, Log10 Concentration −7.0): 187%
Percent Growth (SK-OV-3; SK-OV-3, Log10 Concentration −8.0): 106%
Percent Growth (HOP-62; HOP-62, Log10 Concentration −4.0): −65%
Percent Growth (HOP-62; HOP-62, Log10 Concentration −5.0): 91%
Percent Growth (HOP-62; HOP-62, Log10 Concentration −6.0): 108%
Percent Growth (HOP-62; HOP-62, Log10 Concentration −7.0): 102%
Percent Growth (HOP-62; HOP-62, Log10 Concentration −8.0): 99%
GI50 (HOP-62; Homo sapiens, HOP-62): 18.4 µM
CC50 (HOP-62; Homo sapiens, HOP-62, read-out: LC50): 79.7 µM
IC (TGI) (HOP-62; Homo sapiens, HOP-62, read-out: TGI): 38.3 µM
GI50 (NCI-H226; Homo sapiens, NCI-H226): 14.1 µM
CC50 (NCI-H226; Homo sapiens, NCI-H226, read-out: LC50): 81.3 µM
IC (TGI) (NCI-H226; Homo sapiens, NCI-H226, read-out: TGI): 33.8 µM
Percent Growth (NCI-H226; NCI-H226, Log10 Concentration −4.0): −62%
Percent Growth (NCI-H226; NCI-H226, Log10 Concentration −5.0): 70%
Percent Growth (NCI-H226; NCI-H226, Log10 Concentration −6.0): 91%
Percent Growth (NCI-H226; NCI-H226, Log10 Concentration −7.0): 92%
Percent Growth (NCI-H226; NCI-H226, Log10 Concentration −8.0): 94%
GI50 (NCI-H460; Homo sapiens, NCI-H460): 14.4 µM
CC50 (NCI-H460; Homo sapiens, NCI-H460, read-out: LC50): 97.4 µM
IC (TGI) (NCI-H460; Homo sapiens, NCI-H460, read-out: TGI): 37.5 µM
Percent Growth (NCI-H460; NCI-H460, Log10 Concentration −4.0): −51%
Percent Growth (NCI-H460; NCI-H460, Log10 Concentration −5.0): 69%
Percent Growth (NCI-H460; NCI-H460, Log10 Concentration −6.0): 102%
Percent Growth (NCI-H460; NCI-H460, Log10 Concentration −7.0): 102%
Percent Growth (NCI-H460; NCI-H460, Log10 Concentration −8.0): 104%
